Laboratory results as given in patent publication US20030220524A1, “Sulfur containing compounds” (priority 2000, published 2003).

Tests used:
AML-3 leukemic cell line = assay: TUNEL, flow cytometry; type: cell-based, human; set-up: unit: %; settings: 48 h
Procedure: (§1) Adherent cell lines were plated at 35×10^4 cells/60 cm^2 dish the day before exposure to compound. Suspension cells were seeded at 25×10^4 cells/mL in a 6 well dish (Falcon) the day of exposure to compound. Mononucleated, T-cell depleted normal bone marrow cells were seeded at 50×10^4 cells/mL in a 6 well dish the day of exposure to compound. Cells were exposed to solvent control or approximate MTT50 and MTT30 concentrations of the compound. After 48 h of exposure to the compound, cells were harvested and fixed with a final concentration of 4% formaldehyde. Fixed cells were stored at −20° C. in 70% ethanol for no more than 5 days. Approximately 10^5 cells were pelleted and labeled with 0.02 mM Biotin-dUTP and 12.5 U TdT enzyme in a 1× reaction buffer (200 mM potassium cacodylate, 25 mM Tris-HCl, 25 μg/mL bovine serum albumin, pH 6.6), 2.5 mM CoCl2 and 0.01 mM dTTP (Roche Molecular Biochemicals, Laval, QC, Canada) for 45 min at 37° C. Samples were washed and incubated in 200 μL of 1:1000 fluorescein isothiocyanate (FITC)-conjugated avidin (Sigma) in 4×SSC, 5% skim milk powder and 0.05% Tween-20 (Sigma). Following 1 h of mixing at room temperature, the samples were washed and resuspended in 500 μL of D-PBS containing 2.5 μg/mL DNase-free RNase (Boehringer Mannheim) and 10 μg/mL PI. Following a 30 min incubation at room temperature, cells were analyzed using a XL-MCL flow cytometer (Coulter Corporation, Miami, Fla.) and a FACScalibar cytometer (Becton Dickinson, San Jose, Calif.). Profiles shown are representative of one experiment.
as §1, with “? s” for “Cells”, “appr ? nate” for “approximate”, “of” for “of the”, “Pl.” for “PI.”

[1] = system: Aspergillus niger and Aspergillus flavus; assay: Antifungal activity; type: cell-based; settings: in words; dose not given
Procedure: Sulfur compounds were tested for antifungal activity against pure cultures of Aspergillus niger and Aspergillus flavus supplied by Ward's Natural Science Ltd (St. Catharines, Ontario, Canada). They were maintained on Sabouraud Dextrose Agar.
For the test, 6 agar plugs (5 mm diameter) were cut from a 5-8 day old colony and homogenized in distilled, sterilized water (2 ml). A portion of this suspension (0.5 ml) was transferred aseptically to a Petri plate with Sabouraud Dextrose Agar (15 ml) and spread evenly over the entire surface. Each plate was supplied with four evenly spaced paper disks (7 mm, Whatman Number 1 filter paper) containing the test compound (0, 25, 50 and 100 μg respectively). Each test compound was applied to the disks as a solution (50 mg compound/10 ml acetone). Control disks were treated with neat acetone (20 μl). Test plates with fungal homogenates and disks were incubated at 18-20° C. for 2 days. For each test four replicate plates were used. The diameter of the clear zone surrounding the disk was taken as the indicator of antifungal activity.

What does the source list for `CSCSCS(C)(=O)=O` [B]?
TUNEL FITC +ve (AML-3 leukemic cell line; dose 107 uM (20 ug/mL)): 3.85; Antifungal activity [1]: do not possess antiproliferative activity on either fungal or mammalian cells

How did the Antifungal activity [1] turn out when `CS(C)(=O)=O` [Compound A, dimethyl sulfone] was run?
Its Antifungal activity is “do not possess antiproliferative activity on either fungal or mammalian cells”.

Which “TUNEL FITC +ve” value (AML-3 leukemic cell line; dose 20.2 uM (10 ug/mL)) does the source give for `CSSCS(=O)(=O)c1ccc(C)cc1` [Compound C, α-p-toluenesulfonyl dimethyl disulphide] here?
Its value is 22.4.

And the Antifungal activity [1]?
The Antifungal activity was “possess antifungal and anti-mammalian cell activity”.

How did the Antifungal activity [1] turn out when `CCC(=O)OCSSc1ccccc1` [Compound Q, 1-phenyl-1,2-dithiapropyl propionate] was run?
The Antifungal activity was “potent antifungal compound”.

How did the Antifungal activity [1] turn out when `c1ccc(SSc2ccccc2)cc1` [D, diphenyl disulphide] was run?
The Antifungal activity was “do not possess antifungal activity”.

For `CS(=O)(=O)CSSc1ccccc1` [E, 5-phenyl-2,4,5-trithiapentane 2,2-dioxide], which Antifungal activity [1] is on record?
The Antifungal activity was “possess antifungal and anti-mammalian cell activity”.

With `CSSCCS(C)(=O)=O` [F, 2,3,6-trithiaheptane 6,6,-dioxide] as the compound, how does the “TUNEL FITC +ve” value (AML-3 leukemic cell line; dose 45.8 uM (10 ug/mL)) read?
The value was 31.9.

And the Antifungal activity [1]?
Its Antifungal activity is “do not possess antifungal activity”.

For `CS(=O)(=O)CSCS(C)(=O)=O` [G, 2,4,6-trithiaheptane 2,2,6,6-tetraoxide], which “TUNEL FITC +ve” value (AML-3 leukemic cell line; dose 45.8 uM (10 ug/mL)) is on record?
The value was 3.0.

And the Antifungal activity [1]?
Its Antifungal activity is “do not possess antiproliferative activity on either fungal or mammalian cells”.

Which results are given for `COC(=O)CSSC` [H, methyl 3,4-dithiopentanoate]?
TUNEL FITC +ve (AML-3 leukemic cell line; dose 65.7 uM (10 ug/mL)): 10.2; Antifungal activity [1]: do not possess antifungal activity

What does the source list for `CSSCOC(C)=O` [I, 2,3-dithiabutyl acetate]?
TUNEL FITC +ve (AML-3 leukemic cell line; dose 32.8 uM (5 ug/mL)): 57.3; Antifungal activity [1]: possess antifungal and anti-mammalian cell activity
